Reference: patent publication US20240140999A1, “STABILIZED PEPTIDE-MEDIATED TARGETED PROTEIN DEGRADATION” (Dana-Farber Cancer Institute, Inc., priority 2017, published 2024)
Entries after “also recorded” stand apart in the source; their conditions may differ. Each block holds one substance with its values, some of them ahead of it.

Assays:
[1] = target: T1, Cop1 (Homo sapiens, UniProt Q8NHY2); conditions: reported value (Uljon et al.); read-out: binding affinity for Cop1; cited from earlier work
[2] = target: T2, MCL-1 (Homo sapiens, UniProt Q07820); test: MCL-1 levels by western blot in A375P melanoma cells; assay type: cell-based; conditions: 10 μM, western blot over time
T2 construct: monitoring of cellular MCL-1 levels by western blot of lysates; endogenous in cells; host or cells: A375P melanoma cells
From the text: BIM-C-terminal degron is #IWIAQELRXIGDXFNAYYARR% (SEQ ID NO: 134; #=N-term Ac; %=Lys-degron (see FIG. 3 for the structure of Lys-degron)).
A stapled peptide helix-degron chimeric peptide (FIG. 1) modeled after the pro-apoptotic BIM BH3 domain with an incorporated degron (e.g., Lys-degron, FIG. 2-4) was applied to A375P melanoma cells that express such anti-apoptotic BCL-2 family proteins as MCL-1, which promotes cancer cell survival and chemoresistance.

[3] = target: T1, Cop1; test: Co-immunoprecipitation of Myc-tagged MDM2 p60 mutant constructs with Cop1 from 293T cells; assay type: cell-based; design: Cop1-expressing human embryonic kidney 293T cells; endogenous in cells; host or cells: 293T (human embryonic kidney)
From the text: Sequences: GFDVPD (SEQ ID NO:26); GFDAAD (SEQ ID NO:27); GNDVPD (SEQ ID NO:28); PQTVPD (SEQ ID NO:29); and DQIVPD (SEQ ID NO:30).
(§1) (1) Direct genetic modification: Replacement of natural protein residues in structurally disordered regions with derivatives of the sequence DQIVPEY (SEQ ID NO: 25) can cause the chimera proteins to be degraded by Cop1. For example, replacement of the C-terminal sequence GFDVPD (SEQ ID NO: 26) of the p60 isoform of the protein HDM2 with the Trib1-derived sequence DQIVPD (SEQ ID NO: 30) causes Cop1-mediated degradation of the mutant protein when exogenously expressed in Cop1-expressing human embryonic kidney 293T cells (FIG. 13).

[4] = target: T1, Cop1; test: Cop1-mediated degradation of Myc-tagged MDM2 p60 chimera constructs expressed in 293T cells; assay type: cell-based; design: Cop1-expressing human embryonic kidney 293T cells; endogenous in cells; host or cells: 293T (human embryonic kidney); conditions: native GFDVPD replaced by the sequence; Cop1-expressing 293T cells
From the text: The native peptide sequence GFDVPD (SEQ ID NO: 26) within MDM2 is replaced by the sequences indicated (lane 3: SEQ ID NO:27; lane 4: SEQ ID NO:28; lane 5: SEQ ID NO:29; and lane 6: SEQ ID NO:30). […] Lower panel: Cop1 loading control.
as §1

[5] = system: SJSA-1 cells; test: Cell viability of SJSA-1 cells (Cell Titer Glo); assay type: cell-based; conditions: thalidomide degron chimeras with distinct linkers, FIG. 12
Protocol: Certain compositions bearing different linkers show no cellular activity (right). Linker1-5 are as depicted in FIG. 5.
A stapled peptide degron chimera modeled after the transactivation domain helix of p53 (ATSP-7041) coupled to a thalidomide degron was applied to cultured cancer cells (SJSA-1, SJSA-X) and MDM2 protein levels were monitored by western blot and compared to that in cells treated with ATSP-7041 alone. The experiment was repeated and cell viability was measured by Cell Titer Glo assay. […] In addition, each of the stapled peptide degron chimeras impaired cancer cell viability in a dose-responsive fashion (FIG. 12). The composition of the linker influenced the presence (FIG. 12, left) or absence (FIG. 12, right) of biological activity.

T1 sequence (Q8NHY2 whole entry): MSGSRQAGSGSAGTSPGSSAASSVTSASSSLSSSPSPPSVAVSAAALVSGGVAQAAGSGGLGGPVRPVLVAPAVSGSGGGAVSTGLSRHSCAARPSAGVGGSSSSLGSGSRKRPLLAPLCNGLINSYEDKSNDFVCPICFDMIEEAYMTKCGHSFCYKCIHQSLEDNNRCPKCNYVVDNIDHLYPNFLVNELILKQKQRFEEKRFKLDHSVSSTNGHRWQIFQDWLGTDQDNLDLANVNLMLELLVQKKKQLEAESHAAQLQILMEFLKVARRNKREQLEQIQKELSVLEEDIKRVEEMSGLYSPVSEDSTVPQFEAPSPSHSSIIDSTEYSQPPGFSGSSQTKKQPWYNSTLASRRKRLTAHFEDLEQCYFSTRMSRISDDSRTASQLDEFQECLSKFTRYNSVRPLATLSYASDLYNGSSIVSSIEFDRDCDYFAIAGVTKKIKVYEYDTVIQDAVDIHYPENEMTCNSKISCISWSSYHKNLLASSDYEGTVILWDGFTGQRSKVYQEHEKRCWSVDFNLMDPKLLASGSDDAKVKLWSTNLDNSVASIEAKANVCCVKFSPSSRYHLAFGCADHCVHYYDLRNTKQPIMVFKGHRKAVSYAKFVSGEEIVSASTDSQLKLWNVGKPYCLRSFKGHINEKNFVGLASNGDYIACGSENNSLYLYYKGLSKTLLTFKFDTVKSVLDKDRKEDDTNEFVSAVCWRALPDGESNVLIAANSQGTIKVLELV

Substance: DQIVPEY
Kd [1]: 250 ± 40 nM

Substance: #IWIAQELRXIGDXFNAYYARR% [BIM-C-terminal degron, stapled BIM BH3 peptide; #=N-term Ac; %=Lys-degron (thalidomide on C-terminal lysine side chain)]
cellular MCL-1 protein level [2]: time-dependent decrease in MCL-1 protein; also recorded: induces the degradation of MCL-1

binding of the Myc-tagged MDM2 p60 mutant construct to Cop1 [3]: direct binding
Substance: DQIVPD
Cop1-mediated degradation of the MDM2 p60 chimera protein [4]: causes destruction of the p60 chimera protein by the Cop1 protein

Substance: LTF8EYWAQLX%AA [5-L5]
cell viability / cytotoxic activity [5]: most potent cytotoxic activity
